# Measured values taken from ChEMBL document CHEMBL1201862, “PubChem BioAssay data set” (2004).
# The source made the active and inactive calls. Where a SMILES comes first, the peptide text is derived from it. Square brackets hold non-standard residues; d marks the D form. Peptide text beside a SMILES is read from it.
# Assays:
# [1] = molecular target: Genome polyprotein (dengue virus type 2, UniProt P29990); assay: flavivirus cap methylation enzyme inhibition – biochemical, confirmation dose response, primary screen (AID 588689); assay type: functional
# [2] = molecular target: T1, Short transient receptor potential channel 4 (Mus musculus, UniProt Q9QUQ5); assay: block of DAMGO-driven TRPC4 calcium entry – cell-based, HEK293 TRPC4/mu-opioid, Fluo-4 calcium, dose response (AID 434942); assay type: functional;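 note: potency of inhibitors blocking the TRPC4 calcium response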
# T1 sequence (Q9QUQ5 whole entry): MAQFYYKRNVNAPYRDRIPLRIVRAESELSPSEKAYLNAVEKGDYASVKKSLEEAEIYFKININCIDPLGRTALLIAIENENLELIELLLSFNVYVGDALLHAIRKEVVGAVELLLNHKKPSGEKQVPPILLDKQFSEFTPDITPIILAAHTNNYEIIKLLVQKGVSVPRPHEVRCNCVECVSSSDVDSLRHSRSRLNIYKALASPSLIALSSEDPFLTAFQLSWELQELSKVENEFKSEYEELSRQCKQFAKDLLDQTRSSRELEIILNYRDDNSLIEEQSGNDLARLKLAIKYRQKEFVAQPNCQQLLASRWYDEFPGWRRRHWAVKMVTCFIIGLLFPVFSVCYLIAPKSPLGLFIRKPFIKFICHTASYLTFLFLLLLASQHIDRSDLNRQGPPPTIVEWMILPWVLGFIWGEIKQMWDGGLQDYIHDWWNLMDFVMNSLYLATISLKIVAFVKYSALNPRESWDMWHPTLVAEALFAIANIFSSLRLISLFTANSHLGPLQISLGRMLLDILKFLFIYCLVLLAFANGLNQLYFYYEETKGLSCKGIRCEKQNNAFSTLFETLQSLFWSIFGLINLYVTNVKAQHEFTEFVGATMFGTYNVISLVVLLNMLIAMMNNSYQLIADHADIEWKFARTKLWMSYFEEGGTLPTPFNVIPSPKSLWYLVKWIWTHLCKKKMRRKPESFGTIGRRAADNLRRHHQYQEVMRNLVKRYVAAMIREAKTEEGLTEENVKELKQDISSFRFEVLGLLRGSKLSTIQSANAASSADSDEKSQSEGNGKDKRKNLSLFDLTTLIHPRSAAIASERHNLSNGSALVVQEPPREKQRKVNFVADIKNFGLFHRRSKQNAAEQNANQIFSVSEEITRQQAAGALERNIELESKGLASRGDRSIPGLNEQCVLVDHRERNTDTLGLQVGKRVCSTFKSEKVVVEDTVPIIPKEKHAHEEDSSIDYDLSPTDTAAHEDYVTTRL
# [3] = test system: SN12K1; assay: cells; assay type: functional; details: Homo sapiens
# [4] = test system: P388/ADR; assay: cells; assay type: functional; details: Mus musculus
# [5] = test system: P388; assay: cells; assay type: functional; details: Mus musculus
# [6] = molecular target: T2, Zinc finger protein mex-5 (Caenorhabditis elegans, UniProt Q9XUB2); assay: potency of MEX-5 RNA-binding blockers – biochemical, C. elegans, fluorescence polarization, dose response (AID 1960)
# T2 sequence (Q9XUB2 whole entry): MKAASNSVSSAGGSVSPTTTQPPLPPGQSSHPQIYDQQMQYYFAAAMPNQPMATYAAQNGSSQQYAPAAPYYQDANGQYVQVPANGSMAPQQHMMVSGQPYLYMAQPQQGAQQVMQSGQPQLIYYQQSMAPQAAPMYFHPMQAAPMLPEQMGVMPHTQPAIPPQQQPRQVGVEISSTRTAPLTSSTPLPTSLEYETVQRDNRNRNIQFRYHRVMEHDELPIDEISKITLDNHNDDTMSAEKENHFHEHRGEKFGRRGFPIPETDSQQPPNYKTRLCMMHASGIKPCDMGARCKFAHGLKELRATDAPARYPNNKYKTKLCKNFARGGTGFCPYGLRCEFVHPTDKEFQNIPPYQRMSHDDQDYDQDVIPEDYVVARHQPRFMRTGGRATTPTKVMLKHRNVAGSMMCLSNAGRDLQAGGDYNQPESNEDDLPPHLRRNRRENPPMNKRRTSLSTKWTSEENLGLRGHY
# [7] = molecular target: T3, RNA-binding protein pos-1 (Caenorhabditis elegans, UniProt G5EF15); assay: disruptors of C. elegans POS-1 RNA interaction – biochemical, fluorescence polarization, dose response (AID 1964);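 note: purified POS-1 fused to maltose binding protein made in E. coli; potency of compounds blocking POS-1 binding to fluorescent RNA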
# T3 sequence (G5EF15 whole entry): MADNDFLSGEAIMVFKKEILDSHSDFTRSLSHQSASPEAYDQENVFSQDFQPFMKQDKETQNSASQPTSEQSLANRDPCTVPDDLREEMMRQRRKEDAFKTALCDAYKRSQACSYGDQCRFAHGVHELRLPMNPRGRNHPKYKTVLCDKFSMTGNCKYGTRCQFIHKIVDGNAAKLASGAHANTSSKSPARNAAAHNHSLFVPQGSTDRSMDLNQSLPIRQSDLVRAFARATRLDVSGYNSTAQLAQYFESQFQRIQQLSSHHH
# [8] = molecular target: T4, Carboxy-terminal domain RNA polymerase II polypeptide A small phosphatase 1 (Homo sapiens, UniProt Q9GZU7); assay: CTDSP1 inhibitors, concentration-response, biochemical, absorbance readout, ultra-high-throughput screen actives (AID 540297); assay type: functional
# T4 sequence (Q9GZU7 whole entry): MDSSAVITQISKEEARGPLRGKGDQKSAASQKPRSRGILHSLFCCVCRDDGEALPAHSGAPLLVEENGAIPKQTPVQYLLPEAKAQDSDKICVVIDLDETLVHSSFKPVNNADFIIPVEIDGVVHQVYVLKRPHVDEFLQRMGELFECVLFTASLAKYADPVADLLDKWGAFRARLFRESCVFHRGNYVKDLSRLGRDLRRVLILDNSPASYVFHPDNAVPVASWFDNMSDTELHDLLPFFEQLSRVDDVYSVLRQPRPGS
# [9] = molecular target: Induced myeloid leukemia cell differentiation protein Mcl-1 (Homo sapiens, UniProt Q07820); assay type: functional
# [10] = intracellular Trypanosoma cruzi inhibitors in host cells – cell-based, plate reader, cherry-pick samples, set 3, dose response (AID 651818); assay type: functional;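 note: compounds incubated with infected cells for about four days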
# [11] = molecular target: T5, Replicative DNA helicase DnaB (Mycobacterium tuberculosis, UniProt P9WMR3); assay: DnaB intein splicing inhibitors, dose response, biochemical, cell-free fluorescence (AID 449749); assay type: functional
# T5 sequence (P9WMR3 whole entry): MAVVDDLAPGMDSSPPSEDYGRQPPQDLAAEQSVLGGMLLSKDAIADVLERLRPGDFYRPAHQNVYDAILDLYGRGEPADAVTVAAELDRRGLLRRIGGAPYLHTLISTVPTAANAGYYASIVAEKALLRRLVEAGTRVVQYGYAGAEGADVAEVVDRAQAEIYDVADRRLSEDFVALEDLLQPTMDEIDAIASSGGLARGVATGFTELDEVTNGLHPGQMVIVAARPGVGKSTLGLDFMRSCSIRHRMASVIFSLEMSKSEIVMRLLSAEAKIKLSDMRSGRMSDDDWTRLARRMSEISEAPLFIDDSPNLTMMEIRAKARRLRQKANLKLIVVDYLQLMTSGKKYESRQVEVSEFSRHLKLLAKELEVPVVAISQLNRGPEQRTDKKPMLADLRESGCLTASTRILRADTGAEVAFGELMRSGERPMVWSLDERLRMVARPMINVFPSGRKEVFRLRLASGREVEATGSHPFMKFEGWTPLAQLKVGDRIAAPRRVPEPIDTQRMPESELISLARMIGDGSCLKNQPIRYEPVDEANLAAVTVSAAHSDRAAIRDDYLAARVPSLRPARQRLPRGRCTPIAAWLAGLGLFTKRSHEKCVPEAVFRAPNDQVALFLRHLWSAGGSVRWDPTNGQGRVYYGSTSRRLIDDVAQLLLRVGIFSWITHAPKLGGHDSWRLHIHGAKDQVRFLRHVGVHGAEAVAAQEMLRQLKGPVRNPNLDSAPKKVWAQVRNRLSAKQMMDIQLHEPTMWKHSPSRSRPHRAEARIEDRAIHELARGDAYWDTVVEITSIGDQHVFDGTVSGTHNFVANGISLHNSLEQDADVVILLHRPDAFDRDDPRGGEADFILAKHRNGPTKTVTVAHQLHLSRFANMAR
# [12] = test system: Streptococcus; assay: GAS UMAA2166 growth inhibition – luminescence, BacTiterGlo, counter-screen for streptokinase expression inhibitor project, dose response (AID 1915); assay type: functional, organism-based;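 note: potency for reduction of bacterial viability or growth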
# [13] = molecular target: T6, Streptokinase A (Streptococcus pyogenes serotype M1, UniProt P10520); assay: viability-normalized secreted streptokinase activity reduction – plasminogen activation absorbance, OD405, dose response (AID 1914); assay type: functional, Streptococcus pyogenes M1 GAS;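 note: secreted streptokinase activity via plasminogen activation per viability signal from cell pellet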
# T6 sequence (P10520 whole entry): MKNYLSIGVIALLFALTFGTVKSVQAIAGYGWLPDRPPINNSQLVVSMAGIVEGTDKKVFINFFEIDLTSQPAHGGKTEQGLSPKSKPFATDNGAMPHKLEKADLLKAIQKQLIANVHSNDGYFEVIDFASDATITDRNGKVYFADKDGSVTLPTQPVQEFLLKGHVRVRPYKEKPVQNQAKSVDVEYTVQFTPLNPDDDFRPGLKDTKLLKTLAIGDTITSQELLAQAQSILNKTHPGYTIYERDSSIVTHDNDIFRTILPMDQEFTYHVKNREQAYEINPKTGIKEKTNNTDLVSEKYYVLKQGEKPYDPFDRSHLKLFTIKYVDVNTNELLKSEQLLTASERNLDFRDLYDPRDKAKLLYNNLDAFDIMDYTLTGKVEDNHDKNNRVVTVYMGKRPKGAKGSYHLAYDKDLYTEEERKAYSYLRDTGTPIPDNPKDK
# [14] = test system: Streptococcus sp. 'group A'; assay: Streptococcus pyogenes SK(-)GAS viability under kanamycin – luminescence, BacTiterGlo, confirmation, counter-screen for streptokinase expression inhibitor project, dose response (AID 1900); assay type: functional, organism-based
# Chain of Genome polyprotein (P29990 2492-3391 limits assumed): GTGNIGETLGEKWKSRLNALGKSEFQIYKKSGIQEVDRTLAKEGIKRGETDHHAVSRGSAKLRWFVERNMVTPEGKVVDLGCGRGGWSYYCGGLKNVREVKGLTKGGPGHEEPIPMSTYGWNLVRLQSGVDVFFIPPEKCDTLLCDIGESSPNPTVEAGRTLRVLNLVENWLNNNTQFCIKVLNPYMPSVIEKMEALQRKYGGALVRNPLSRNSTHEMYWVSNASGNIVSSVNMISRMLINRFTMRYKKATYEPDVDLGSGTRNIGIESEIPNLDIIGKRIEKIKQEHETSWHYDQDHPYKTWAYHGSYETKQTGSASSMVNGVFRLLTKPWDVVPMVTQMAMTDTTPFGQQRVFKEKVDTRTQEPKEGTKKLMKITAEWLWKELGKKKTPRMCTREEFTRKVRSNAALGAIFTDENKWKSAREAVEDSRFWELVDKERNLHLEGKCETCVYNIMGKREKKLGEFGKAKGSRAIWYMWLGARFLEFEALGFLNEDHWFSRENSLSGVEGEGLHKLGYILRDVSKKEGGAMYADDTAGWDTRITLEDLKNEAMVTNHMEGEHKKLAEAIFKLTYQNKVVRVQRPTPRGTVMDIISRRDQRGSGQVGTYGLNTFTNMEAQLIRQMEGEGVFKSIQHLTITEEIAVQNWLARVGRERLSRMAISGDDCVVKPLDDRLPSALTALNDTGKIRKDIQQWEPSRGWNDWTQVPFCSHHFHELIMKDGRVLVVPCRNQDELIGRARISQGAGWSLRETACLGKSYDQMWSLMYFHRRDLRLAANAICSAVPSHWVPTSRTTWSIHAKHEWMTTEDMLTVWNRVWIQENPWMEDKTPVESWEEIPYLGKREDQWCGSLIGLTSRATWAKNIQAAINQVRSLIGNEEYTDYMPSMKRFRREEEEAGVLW
# Chain of Induced myeloid leukemia cell differentiation protein Mcl-1 (Q07820 whole entry): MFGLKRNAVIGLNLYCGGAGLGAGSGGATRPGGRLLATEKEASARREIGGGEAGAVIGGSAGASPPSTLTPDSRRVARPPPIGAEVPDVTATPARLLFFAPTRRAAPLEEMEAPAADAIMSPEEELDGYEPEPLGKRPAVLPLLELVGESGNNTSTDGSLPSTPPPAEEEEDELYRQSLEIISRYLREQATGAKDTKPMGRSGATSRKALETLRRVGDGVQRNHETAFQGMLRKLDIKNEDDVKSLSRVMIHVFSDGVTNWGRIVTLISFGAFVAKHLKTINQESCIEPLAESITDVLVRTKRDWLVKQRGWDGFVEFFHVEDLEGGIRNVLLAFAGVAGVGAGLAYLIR
Structure (SMILES),EC50 [2],GI50 [3],GI50 [4],GI50 [5],also measured
Cc1sc(C(C2C(=O)CC(C)(C)CC2=O)C2C(=O)CC(C)(C)CC2=O)cc1[N+](=O)[O-],,,,,IC50 [1]: 29.4 µM (active)
Cc1ccc(N(C(=O)c2snc(C(N)=O)c2N)C(C(=O)NCC2CCCO2)c2ccc(C)o2)c(C)c1 (stereo not given),1.68 µM (active),,,,
CCOC(=O)C1(CCOC)CCN(C(C)CCc2ccc(OC)cc2)CC1 (stereo not given),4.22 µM (active),,,,
Cc1cc(/N=N/c2ccc(/N=N/c3c(O)c(S(=O)(=O)O)cc4cc(S(=O)(=O)O)ccc34)cc2C)ccc1/N=N/c1ccc2cc(S(=O)(=O)O)cc(S(=O)(=O)O)c2c1,,> 100 µM (inactive),26.5 µM (inactive),42.8 µM (inactive),
COC(=O)Cn1cc(C=C2C(=O)NC(=O)NC2=O)c2ccccc21,,,,,IC50 [1]: 25.7 µM (active); EC50 [6]: > 300 µM (not active); EC50 [7]: > 300 µM (not active)
CCCCNC(=O)c1ccc2nc(-c3ccco3)c(-c3ccco3)nc2c1,,,,,IC50 [1]: 80.4 µM (active); IC50 [8]: 3.77 µM (active); IC50 [9]: 6.65 µM (active)
O=[N+]([O-])c1cccc(N(CC(O)CN2CCCC2)S(=O)(=O)c2ccccc2)c1 (stereo not given),10.6 µM (active),,,,
C[C@@H]1CN([C@@H](C)CO)C(=O)Cc2cc(NS(=O)(=O)c3ccc(F)cc3)ccc2O[C@@H]1CN(C)Cc1ccc(Oc2ccccc2)cc1,,,,,AC50 [10]: 3.56 µM (active)
ClCCN(CC#CCCCC#CCN(CCCl)CCCl)CCCl,,10 µM (inactive),2.44 µM (inactive),0.736 µM (active),
CC[C@H]1CN2CCc3cc(OC)c(OC)cc3[C@@H]2C[C@@H]1C[C@H]1NCCc2c1[nH]c1ccc(O)cc21 [TUBULOSINE],,< 0.01 µM (active),0.493 µM (active),< 0.01 µM (active),
CCS(=O)(=O)Nc1ccc(Nc2c3ccccc3nc3ccccc23)c(OC)c1,,0.51 µM (active),0.0955 µM (active),< 0.01 µM (active),
C[C@H]1CN([C@@H](C)CO)C(=O)c2cccc(NC(=O)CCCCCC(=O)Nc3ccccc3N)c2O[C@@H]1CN(C)Cc1ccc2c(c1)OCO2,,,,,AC50 [10]: 1.72 µM (active)
O=C(NC/C=C/CO)c1ccccc1,,> 100 µM (inactive),> 100 µM (inactive),> 100 µM (inactive),
Cc1ccc(/C=C/C(=O)c2ccc(O)cc2)cc1,3.35 µM (active),,,,
CCCc1nc2ccccc2n1Cc1ccccc1OC,6.68 µM (active),,,,
CC(C)C[C@H](NC(=O)[C@H](CC(C)C)NC(=O)[C@@H](Cc1c[nH]c2ccccc12)NC(=O)[C@H](Cc1ccccc1)NC(=O)[C@@H](Cc1c[nH]c2ccccc12)NC(=O)[C@H](CCC(N)=O)NC(=O)[C@@H](CCC(N)=O)NC(=O)[C@@H]1CCCN1C(=O)[C@@H](CCCCN)NC(=O)[C@H]1CCCN1C(=O)[C@H](N)CCCN=C(N)N)C(N)=O (H-[dR][dP][dK]P[dQ]Q[dW]F[dW]LL-NH2),,> 100 µM (inactive),> 100 µM (inactive),> 79.8 µM (inactive),
O=C(CCN1CCOCC1)C(=Cc1ccccc1)C(=O)CCN1CCOCC1,,2.32 µM (inactive),0.255 µM (active),0.392 µM (active),
CC1NC(=O)CNC(=O)CNC(=O)C(Cc2ccc(O)cc2)NC(=O)C(C(C)C)NC(=O)C(C)NC1=O (stereo not given) (cyclo(GGAAVY); configuration not given here),,> 100 µM (inactive),> 100 µM (inactive),> 100 µM (inactive),
N=C(Cc1cccc2ccccc12)NOC(=O)c1cccs1,0.596 µM (active),,,,AC50 [11]: 5.96 µM (active)
COc1cc(C=C2C(=O)NC(=O)NC2=O)ccc1OS(=O)(=O)c1ccccc1[N+](=O)[O-],,,,,IC50 [1]: 37.7 µM (active)
CC(=O)N1CCN(c2ccccc2NC(=O)c2cccs2)CC1,1.68 µM (active),,,,EC50 [12]: > 150 µM (not active); EC50 [13]: > 150 µM (not active); EC50 [14]: > 150 µM (not active)
